Source: ChEMBL document CHEMBL5724914, “Linking interpersonal differences in gut microbiota composition and drug biotransformation activity” (2024)

Assays:
[1] = The drug is tested on WLS-240 corresponding to human gut metagenome with ENA study accession number: PRJEB37062 and ENA sample accession number: ERS12561773 for biotransformation under anaerobic condition. The drug concentrations were measured over 9 timepoints collected between 0 and 24 hours of incubation by liquid-chromatography-coupled mass spectrometry (LC–MS); conditions: 2 µM
[2] = The drug is tested on WLS-370 corresponding to human gut metagenome with ENA study accession number: PRJEB37062 and ENA sample accession number: ERS12561793 for biotransformation under anaerobic condition. The drug concentrations were measured over 9 timepoints collected between 0 and 24 hours of incubation by liquid-chromatography-coupled mass spectrometry (LC–MS); conditions: 2 µM
[3] = The drug is tested on Z-022 corresponding to mouse gut metagenome with ENA study accession number: PRJEB37062 and ENA sample accession number: ERS12561821 for biotransformation under anaerobic condition. The drug concentrations were measured over 9 timepoints collected between 0 and 24 hours of incubation by liquid-chromatography-coupled mass spectrometry (LC–MS); conditions: 2 µM
[4] = human gut metagenome, 24 h, 2 µM
[5] = human gut metagenome, 24 h, 2 µM; remark: listed apart in the source
[6] = The drug is tested on WLS-220 corresponding to human gut metagenome with ENA study accession number: PRJEB37062 and ENA sample accession number: ERS12561769 for biotransformation under anaerobic condition. The drug concentrations were measured over 9 timepoints collected between 0 and 24 hours of incubation by liquid-chromatography-coupled mass spectrometry (LC–MS); conditions: 2 µM
[7] = human gut metagenome, 24 h, 2 µM; remark: listed apart in the source
[8] = The drug is tested on Z-004 corresponding to metagenome with ENA study accession number: PRJEB37062 and ENA sample accession number: ERS12561804 for biotransformation under anaerobic condition. The drug concentrations were measured over 9 timepoints collected between 0 and 24 hours of incubation by liquid-chromatography-coupled mass spectrometry (LC–MS); conditions: 2 µM
[9] = The drug is tested on WLS-082 corresponding to human gut metagenome with ENA study accession number: PRJEB37062 and ENA sample accession number: ERS12561751 for biotransformation under anaerobic condition. The drug concentrations were measured over 9 timepoints collected between 0 and 24 hours of incubation by liquid-chromatography-coupled mass spectrometry (LC–MS); conditions: 2 µM
[10] = The drug is tested on Z-018 corresponding to pig gut metagenome with ENA study accession number: PRJEB37062 and ENA sample accession number: ERS12561817 for biotransformation under anaerobic condition. The drug concentrations were measured over 9 timepoints collected between 0 and 24 hours of incubation by liquid-chromatography-coupled mass spectrometry (LC–MS); conditions: 2 µM
[11] = human gut metagenome, 24 h, 2 µM; remark: listed apart in the source
[12] = human gut metagenome, 24 h, 2 µM; remark: listed apart in the source
[13] = The drug is tested on Z-001 corresponding to mouse gut metagenome with ENA study accession number: PRJEB37062 and ENA sample accession number: ERS12561801 for biotransformation under anaerobic condition. The drug concentrations were measured over 9 timepoints collected between 0 and 24 hours of incubation by liquid-chromatography-coupled mass spectrometry (LC–MS); conditions: 2 µM
[14] = human gut metagenome, 24 h, 2 µM; remark: listed apart in the source
[15] = human gut metagenome, 24 h, 2 µM; remark: listed apart in the source
[16] = human gut metagenome, 24 h, 2 µM; remark: listed apart in the source
[17] = human gut metagenome, 24 h, 2 µM; remark: listed apart in the source
[18] = human gut metagenome, 24 h, 2 µM; remark: listed apart in the source
[19] = The drug is tested on Z-002 corresponding to rabbit gut metagenome with ENA study accession number: PRJEB37062 and ENA sample accession number: ERS12561802 for biotransformation under anaerobic condition. The drug concentrations were measured over 9 timepoints collected between 0 and 24 hours of incubation by liquid-chromatography-coupled mass spectrometry (LC–MS); conditions: 2 µM
[20] = The drug is tested on WLS-052 corresponding to human gut metagenome with ENA study accession number: PRJEB37062 and ENA sample accession number: ERS12561747 for biotransformation under anaerobic condition. The drug concentrations were measured over 9 timepoints collected between 0 and 24 hours of incubation by liquid-chromatography-coupled mass spectrometry (LC–MS); conditions: 2 µM
Further: call rule not given here.

Structure (SMILES)	Bacterial Biotransformation [1]	Bacterial Biotransformation [2]	Bacterial Biotransformation [3]	Bacterial Biotransformation [4]	Bacterial Biotransformation [5]	Bacterial Biotransformation [6]	Bacterial Biotransformation [7]	Bacterial Biotransformation [8]	Bacterial Biotransformation [9]	Bacterial Biotransformation [10]	Bacterial Biotransformation [11]	Bacterial Biotransformation [12]	Bacterial Biotransformation [13]	Bacterial Biotransformation [14]	Bacterial Biotransformation [15]	Bacterial Biotransformation [16]	Bacterial Biotransformation [17]	Bacterial Biotransformation [18]	Bacterial Biotransformation [19]	Bacterial Biotransformation [20]
CN1CCC(OC(c2ccccc2)c2ccccc2)CC1	Compound metabolized	Compound metabolized	Compound NOT metabolized	Compound metabolized	Compound NOT metabolized	Compound metabolized	Compound metabolized	Compound NOT metabolized	Compound NOT metabolized	Compound metabolized	Compound NOT metabolized	Compound metabolized	Compound NOT metabolized	Compound metabolized	Compound metabolized	Compound NOT metabolized	Compound NOT metabolized	Compound metabolized	Compound NOT metabolized	Compound NOT metabolized
CN1CCC(=C2c3ccccc3CC(=O)c3sccc32)CC1.O=C(O)/C=C/C(=O)O [KETOTIFEN FUMARATE]	Compound metabolized	Compound metabolized	Compound NOT metabolized	Compound NOT metabolized	Compound NOT metabolized	Compound metabolized	Compound metabolized	Compound NOT metabolized	Compound NOT metabolized	Compound NOT metabolized	Compound NOT metabolized	Compound metabolized	Compound NOT metabolized	Compound metabolized	Compound metabolized	Compound NOT metabolized	Compound NOT metabolized	Compound metabolized	Compound NOT metabolized	Compound NOT metabolized
CN1[C@@H]2CC[C@H]1C[C@@H](OC(=O)c1c[nH]c3ccccc13)C2 [TROPISETRON]	Compound NOT metabolized	Compound NOT metabolized	Compound NOT metabolized	Compound NOT metabolized	Compound NOT metabolized	Compound NOT metabolized	Compound NOT metabolized	Compound NOT metabolized	Compound NOT metabolized	Compound NOT metabolized	Compound NOT metabolized	Compound NOT metabolized	Compound NOT metabolized	Compound NOT metabolized	Compound NOT metabolized	Compound NOT metabolized	Compound NOT metabolized	Compound NOT metabolized	Compound NOT metabolized	Compound NOT metabolized
CC(C)c1nc(N(C)S(C)(=O)=O)nc(-c2ccc(F)cc2)c1/C=C/[C@@H](O)C[C@@H](O)CC(=O)[O-].CC(C)c1nc(N(C)S(C)(=O)=O)nc(-c2ccc(F)cc2)c1/C=C/[C@@H](O)C[C@@H](O)CC(=O)[O-].[Ca+2] [ROSUVASTATIN CALCIUM]	Compound metabolized	Compound metabolized	Compound NOT metabolized	Compound NOT metabolized	Compound metabolized	Compound metabolized	Compound metabolized	Compound NOT metabolized	Compound metabolized	Compound NOT metabolized	Compound NOT metabolized	Compound metabolized	Compound NOT metabolized	Compound NOT metabolized	Compound metabolized	Compound metabolized	Compound metabolized	Compound metabolized	Compound NOT metabolized	Compound metabolized
C[C@@H](c1ncncc1F)[C@](O)(Cn1cncn1)c1ccc(F)cc1F [VORICONAZOLE]	Compound metabolized	Compound metabolized	Compound metabolized	Compound metabolized	Compound metabolized	Compound metabolized	Compound metabolized	Compound NOT metabolized	Compound metabolized	Compound metabolized	Compound NOT metabolized	Compound metabolized	Compound NOT metabolized	Compound metabolized	Compound metabolized	Compound metabolized	Compound metabolized	Compound metabolized	Compound metabolized	Compound metabolized
